For the first experiment, the target named is α4β7 integrin (Homo sapiens (Human), UniProt P13612+P26010). In words: α4β7 Integrin Cell Capture Assay. It counts as cell-based. The note with it: RPMI8866 cells captured on MadCAM-1 extracellular domain-coated plate. As to the method: α4β7 Integrin Cell Capture Assay
Sequence of α4β7 integrin (P13612 34-1032): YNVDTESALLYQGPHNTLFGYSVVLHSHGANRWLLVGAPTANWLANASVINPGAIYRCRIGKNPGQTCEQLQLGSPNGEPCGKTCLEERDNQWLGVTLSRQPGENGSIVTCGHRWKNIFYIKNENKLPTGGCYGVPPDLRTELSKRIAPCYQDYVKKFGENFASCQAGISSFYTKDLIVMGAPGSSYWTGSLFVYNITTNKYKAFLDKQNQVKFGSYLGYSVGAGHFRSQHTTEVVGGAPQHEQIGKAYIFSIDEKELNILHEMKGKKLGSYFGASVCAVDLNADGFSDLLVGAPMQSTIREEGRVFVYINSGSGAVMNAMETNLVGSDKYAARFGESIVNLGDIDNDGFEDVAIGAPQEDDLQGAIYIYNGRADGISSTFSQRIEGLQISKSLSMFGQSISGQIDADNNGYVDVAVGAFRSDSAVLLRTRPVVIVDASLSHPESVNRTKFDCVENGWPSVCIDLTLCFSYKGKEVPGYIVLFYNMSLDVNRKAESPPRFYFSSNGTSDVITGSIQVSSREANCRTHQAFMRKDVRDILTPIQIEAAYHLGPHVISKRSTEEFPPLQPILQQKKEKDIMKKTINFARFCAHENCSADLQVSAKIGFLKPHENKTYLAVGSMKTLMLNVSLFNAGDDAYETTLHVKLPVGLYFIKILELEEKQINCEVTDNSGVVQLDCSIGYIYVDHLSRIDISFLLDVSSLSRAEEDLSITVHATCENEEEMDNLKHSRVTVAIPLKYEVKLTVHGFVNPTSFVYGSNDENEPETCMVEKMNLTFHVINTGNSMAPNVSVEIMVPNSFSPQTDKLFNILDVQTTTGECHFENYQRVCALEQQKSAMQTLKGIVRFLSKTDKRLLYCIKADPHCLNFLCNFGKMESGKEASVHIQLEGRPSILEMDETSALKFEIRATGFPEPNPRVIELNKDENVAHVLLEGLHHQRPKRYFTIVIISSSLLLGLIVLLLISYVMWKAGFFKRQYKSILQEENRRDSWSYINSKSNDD
Sequence of α4β7 integrin (P26010 20-798): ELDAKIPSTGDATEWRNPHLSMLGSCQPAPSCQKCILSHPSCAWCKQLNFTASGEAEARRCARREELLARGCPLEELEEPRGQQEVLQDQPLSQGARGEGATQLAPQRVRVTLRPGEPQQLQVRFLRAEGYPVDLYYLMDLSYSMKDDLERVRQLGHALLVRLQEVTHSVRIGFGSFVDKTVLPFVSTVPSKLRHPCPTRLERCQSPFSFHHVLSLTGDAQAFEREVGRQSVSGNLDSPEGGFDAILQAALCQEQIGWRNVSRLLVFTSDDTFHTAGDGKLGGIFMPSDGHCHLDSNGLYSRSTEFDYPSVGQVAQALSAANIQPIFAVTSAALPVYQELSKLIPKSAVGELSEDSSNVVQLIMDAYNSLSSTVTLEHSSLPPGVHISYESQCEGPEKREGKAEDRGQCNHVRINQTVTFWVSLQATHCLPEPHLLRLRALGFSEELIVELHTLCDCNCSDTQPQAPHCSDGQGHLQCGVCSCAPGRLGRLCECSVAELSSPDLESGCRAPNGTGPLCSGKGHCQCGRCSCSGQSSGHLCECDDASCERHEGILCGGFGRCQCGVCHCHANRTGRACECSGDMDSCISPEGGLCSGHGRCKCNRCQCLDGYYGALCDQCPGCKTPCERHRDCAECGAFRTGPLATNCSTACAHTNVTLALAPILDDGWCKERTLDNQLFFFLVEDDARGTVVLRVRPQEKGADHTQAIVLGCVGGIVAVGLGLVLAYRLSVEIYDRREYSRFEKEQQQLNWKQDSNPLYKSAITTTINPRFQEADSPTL
The potency of inhibitors in preventing α4β7 integrin interaction with MadCAM-1 was measured by monitoring the capture of α4β7 integrin expressing cells on a recombinant MadCAM-1 extracellular domain-coated plate. […] The plates were then washed with PBS and blocked with 3% BSA for 2 hours before being washed again.
RPM18866 cells were spun down and re-suspended in assay medium (DMEM+0.5% FBS+0.5 mM MnCl2) at a density of 0.5×10^6 cells/mL. […] The plates were incubated at 37° C. for 1 hour. 50 μL of cells were transferred to the blocked, MadCAM-1-coated plates and incubated for 30 minutes at 37° C. […] The plates were incubated for 90 minutes at room temperature. The plates were then washed 3 times with 70 μL of PBS per well and imaged on a Cellomics ArrayScan instrument. The cells that were bound to the plate were counted and plotted against the compound concentration to determine the EC50 of the test compounds.
The EC50 is the concentration needed to bring the measured effect to its halfway point. `Cc1cc(N2CCOC[C@@H]2C(F)(F)F)cc(F)c1C(=O)N[C@@H](Cc1ccc(-n2c(=O)c3cnccc3n(C)c2=O)c2ncc(F)cc12)C(=O)O` [Example 427] returned an EC50 of 0.355 nM. This counts as sub-nanomolar.
Still for that read-out and setting: the figure for `CC[C@@H](Nc1cc(C)c(C(=O)N[C@@H](Cc2ccc(-n3c(=O)c4ccncc4n(C)c3=O)c3ncccc23)C(=O)O)c(F)c1)C(F)(F)F` [Example 439] is 0.049 nM; for `COc1cc2c(=O)n(-c3ccc(C[C@H](NC(=O)c4c(F)cc(N5CCOC[C@@H]5C(F)(F)F)cc4F)C(=O)O)c4cccnc34)c(=O)n(C)c2cn1` [Example 428] it is 0.18 nM; for `CCn1c(=O)n(-c2ccc(C[C@H](NC(=O)c3c(C)cc(N4CCOC[C@@H]4C(F)(F)F)cc3F)C(=O)O)c3cccnc23)c(=O)c2ccncc21` [Example 417] it is 0.117 nM.
Consider `COc1cc2c(=O)n(-c3ccc(C[C@H](NC(=O)c4c(C)cc(N5CCOC[C@@H]5C(F)(F)F)cc4F)C(=O)O)c4cccnc34)c(=O)n(C)c2cn1` [Example 429], for which the EC50 is 0.162 nM.
Same read-out and setting: next, `Cc1cc(C(F)(F)F)c(-c2ccc(C[C@H](NC(=O)c3c(F)cc(N4CCO[C@@H](C)[C@@H]4C(F)(F)F)cc3F)C(=O)O)c3cccnc23)c(=O)n1C` [Example 468]: 0.189 nM.

Still in this experiment, the particulars now being: Table 1; capture of α4β7 expressing RPM18866 cells on MadCAM-1 extracellular domain-coated plate.
`Cc1cc(C(F)(F)F)c(-c2ccc(C[C@H](NC(=O)c3c(F)cc(N4CCC[C@@H]4C(F)(F)F)cc3F)C(=O)O)c3cccnc23)c(=O)n1C` [Example 132, (S)-2-(2,6-difluoro-4-((R)-2-(trifluoromethyl)pyrrolidin-1-yl)benzamido)-3-(8-(1,6-dimethyl-2-oxo-4-(trifluoromethyl)-1,2-dihydropyridin-3-yl)quinolin-5-yl)propanoic acid] displayed an EC50 of 1.3 nM.
`CCOCc1cc(OC)c(-c2ccc(C[C@H](NC(=O)c3c(F)cccc3F)C(=O)O)c3cccnc23)c(OC)c1` [Example 18, (S)-2-(2,6-difluorobenzamido)-3-(8-(4-(ethoxymethyl)-2,6-dimethoxyphenyl)quinolin-5-yl)propanoic acid]: the response was half-maximal at 9 nM (EC50).
In turn, `COc1cc2ccccc2cc1-c1ccc(C[C@H](NC(=O)c2c(F)cccc2F)C(=O)O)c2cccnc12` [Example 9, (S)-2-(2,6-difluorobenzamido)-3-(8-(3-methoxynaphthalen-2-yl)quinolin-5-yl)propanoic acid] showed a concentration for a half-maximal effect (EC50) of 25.1 nM.
On the same count and under the same terms, the figure for `CS(=O)(=O)c1cc(F)ccc1-c1ccc(C[C@H](NC(=O)c2c(F)cc(NS(=O)(=O)c3ccc(-c4ccnc(F)c4)cc3)cc2F)C(=O)O)c2cccnc12` [Example 61, (S)-2-(2,6-difluoro-4-((4-(2-fluoropyridin-4-yl)phenyl)sulfonamido)benzamido)-3-(8-(4-fluoro-2-(methylsulfonyl)phenyl)quinolin-5-yl)propanoic acid] is 4.2 nM; for `Cc1ccccc1-c1ccc(C[C@H](NC(=O)c2c(F)cc(NS(=O)(=O)c3ccc(-c4ccnc(F)c4)cc3)cc2F)C(=O)O)c2cccnc12` [Example 63, (S)-2-(2,6-difluoro-4-((4-(2-fluoropyridin-4-yl)phenyl)sulfonamido)benzamido)-3-(8-(o-tolyl)quinolin-5-yl)propanoic acid] it is 30.5 nM.
Consider `N#Cc1ccc(-c2ccc(C[C@H](NC(=O)c3c(F)cc(N4CCNC[C@@H]4C(F)(F)F)cc3F)C(=O)O)c3cccnc23)c(Cl)c1` [Example 77, (S)-3-(8-(2-chloro-4-cyanophenyl)quinolin-5-yl)-2-(2,6-difluoro-4-((R)-2-(trifluoromethyl)piperazin-1-yl)benzamido)propanoic acid], for which the 50% effective concentration (EC50) was found to be 90.7 nM. Against the preceding molecule, the EC50 is about 3-fold higher.
`CC[C@@H](Nc1cc(F)c(C(=O)N[C@@H](Cc2ccc(-c3c(C(F)(F)F)cc(C)n(C)c3=O)c3ncccc23)C(=O)O)c(F)c1)C(F)(F)F` (single isomer, unassigned) [Example 147] showed an EC50 of 1.9 nM.
With `CC[C@@H](Nc1cc(F)c(C(=O)N[C@@H](Cc2ccc(-c3cnc(C)n(C)c3=O)c3ncccc23)C(=O)O)c(F)c1)C(F)(F)F` [Example 118, (S)-2-(2,6-difluoro-4-(((R)-1,1,1-trifluorobutan-2-yl)amino)benzamido)-3-(8-(1,2-dimethyl-6-oxo-1,6-dihydropyrimidin-5-yl)quinolin-5-yl)propanoic acid], the response was half-maximal at 1.5 nM (EC50).
Still for that read-out and setting: the figure for `Cc1cc(Cl)c(-c2ccc(C[C@H](NC(=O)c3c(F)cc(N4CCOC[C@@H]4C(F)(F)F)cc3F)C(=O)O)c3cccnc23)c(=O)n1C` [Example 100, (S)-3-(8-(4-chloro-1,6-dimethyl-2-oxo-1,2-dihydropyridin-3-yl)quinolin-5-yl)-2-(2,6-difluoro-4-((R)-3-(trifluoromethyl)morpholino)benzamido)propanoic acid] is 0.7 nM; for `CC[C@@H](Nc1cc(F)c(C(=O)N[C@@H](Cc2ccc(-c3c(C(F)(F)F)cc(C)n(C)c3=O)c3ncc(F)cc23)C(=O)O)c(F)c1)C(F)(F)F` [Example 140, (S)-2-(2,6-difluoro-4-(((R)-1,1,1-trifluorobutan-2-yl)amino)benzamido)-3-(8-(1,6-dimethyl-2-oxo-4-(trifluoromethyl)-1,2-dihydropyridin-3-yl)-3-fluoroquinolin-5-yl)propanoic acid] it is 0.5 nM; for `CC[C@@H](Nc1cc(Cl)c(C(=O)N[C@@H](Cc2ccc(-c3c(C(F)(F)F)cc(C)n(C)c3=O)c3ncccc23)C(=O)O)c(Cl)c1)C(F)(F)F` [Example 143, (S)-2-(2,6-dichloro-4-(((R)-1,1,1-trifluorobutan-2-yl)amino)benzamido)-3-(8-(1,6-dimethyl-2-oxo-4-(trifluoromethyl)-1,2-dihydropyridin-3-yl)quinolin-5-yl)propanoic acid] it is 0.3 nM.
In turn, `N#Cc1ccc(-c2ccc(C[C@H](NC(=O)c3c(F)cc(N4CCOCC4)cc3F)C(=O)O)c3cccnc23)c(Cl)c1` [Example 79, (S)-3-(8-(2-chloro-4-cyanophenyl)quinolin-5-yl)-2-(2,6-difluoro-4-morpholinobenzamido)propanoic acid] had a half-maximal effective concentration (EC50) of 26.1 nM.

Staying with this experiment, now noted: Table 2; capture of α4β7 expressing RPM18866 cells on MadCAM-1 extracellular domain-coated plate.
`N#Cc1ccc(-c2ccc(C[C@H](NC(=O)c3c(F)cc(N[C@H](c4ccccc4)C(F)F)cc3F)C(=O)O)c3cccnc23)c(Cl)c1` [Example 324] gave an EC50 of 18.7 nM.
Same read-out and setting: the figure for `CCOCc1cc(OC)c(-c2ccc(C[C@H](NC(=O)c3c(F)cc4[nH]c(Cc5ccccc5)cc4c3F)C(=O)O)c3cccnc23)c(OC)c1` [Example 335] is 25.1 nM; for `CC1(O)CCN(c2cc(F)c(C(=O)N[C@@H](Cc3ccc(-c4ccc(C#N)cc4Cl)c4ncccc34)C(=O)O)c(F)c2)CC1` [Example 216] it is 31 nM; for `Cn1c(=O)c(-c2ccc(C[C@H](NC(=O)c3c(F)cc(N4CCOC[C@H]4C(F)(F)F)cc3F)C(=O)O)c3cccnc23)cc2cnccc21` [Example 192] it is 1.4 nM.
Same read-out and setting: next, `CC[C@@H](Nc1cc(F)c(C(=O)N[C@@H](Cc2ccc(-c3c(C)c(F)cn(C)c3=O)c3ncccc23)C(=O)O)c(F)c1)C(F)(F)F` [Example 199]: 1.5 nM.
The molecule `CC[C@@H](Nc1cc(F)c(C(=O)N[C@@H](Cc2ccc(-c3c(C(F)(F)F)cc(F)c4cccnc34)c3ncccc23)C(=O)O)c(F)c1)C(F)(F)F` [Example 256] displayed a concentration giving a half-maximal response (EC50) of 3.5 nM.
On the same count and under the same terms, the figure for `CC[C@@H](Nc1cc(F)c(C(=O)N[C@@H](Cc2ccc(-c3nccc(C)c3N(C)C)c3ncccc23)C(=O)O)c(F)c1)C(F)(F)F` [Example 300] is 8.4 nM; for `CCOCc1cc(OC)c(-c2ccc(C[C@H](NC(=O)c3c(F)cc(N[C@H](CC)C(F)(F)F)cc3F)C(=O)O)c3cccnc23)c(OC)c1` [Example 201] it is 1.5 nM.
Molecule `O=C(N[C@@H](Cc1ccc(-c2ccc3c4c(ccnc24)CCO3)c2ncccc12)C(=O)O)c1c(F)cccc1F` [Example 306] yielded an EC50 of 11.2 nM.
Consider `C[C@H](O)Cc1cc(F)c(C(=O)N[C@@H](Cc2ccc(-c3ccc(C#N)cc3Cl)c3ncccc23)C(=O)O)c(F)c1` [Example 286], for which the EC50 was found to be 47.3 nM.
For the molecule `Cn1ccc2c(Cl)c(C(=O)N[C@@H](Cc3ccc(-c4ccc(C#N)cc4Cl)c4ncccc34)C(=O)O)c(Cl)cc21` [Example 285], the EC50 was 46.2 nM.
The same measure, in the same setting: the figure for `CC[C@@H](Nc1cc(F)c(C(=O)N[C@@H](Cc2ccc(-c3ccc(F)c4cccnc34)c3ncccc23)C(=O)O)c(F)c1)C(F)(F)F` [Example 264] is 4.1 nM; for `CC[C@@H](Nc1cc(F)c(C(=O)N[C@@H](Cc2ccc(-c3c(OC)cc(C)n(C)c3=O)c3ncccc23)C(=O)O)c(F)c1)C(F)(F)F` [Example 341] it is 0.6 nM; for `Cc1nc(-c2ccc(C[C@H](NC(=O)c3c(F)cc(N4CCOC[C@@H]4C(F)(F)F)cc3F)C(=O)O)c3cccnc23)nc2cc(F)ccc12` [Example 206] it is 1.7 nM.
The same measure, in the same setting: the figure for `CC(=O)Cc1cc(F)c(C(=O)N[C@@H](Cc2ccc(-c3ccc(C#N)cc3Cl)c3ncccc23)C(=O)O)c(F)c1` [Example 221] is 48.2 nM.
`CC[C@@H](Nc1cc(F)c(C(=O)N[C@@H](Cc2ccc(-c3ncc4c(n3)CCC4)c3ncccc23)C(=O)O)c(F)c1)C(F)(F)F` [Example 311] registered an EC50 of 12.3 nM.
On the same count and under the same terms, next, `Cc1cc(C(F)(F)F)c(-c2ccc(C[C@H](NC(=O)c3c(F)cc(N4CCOC[C@H]4CC(F)F)cc3F)C(=O)O)c3cccnc23)c(=O)n1C` [Example 250]: 3.1 nM; `N#Cc1ccc(-c2ccc(C[C@H](NC(=O)c3c(F)cc(N[C@H](C4CCC4)C(F)(F)F)cc3F)C(=O)O)c3cccnc23)c(Cl)c1` [Example 333]: 24.1 nM.

For the origin of these results see US11116760B2 (Gilead Sciences, Inc., priority 2018, dated 2021).
